# Results: patent US20020187944A1, “Inhibition of human immunodeficiency virus reverse transcriptase” (priority 2001, published 2002)
# Columns and labels:
# [1] = molecular target: T1, DNA-dependent DNA polymerase (DNA pol I, GibcoBRL) (Escherichia coli, UniProt P00582); experiment: DNA-dependent DNA polymerase reaction, radiolabel incorporation; format: biochemical, E. coli
# T1 construct: purchased GibcoBRL
# Protocol: (§1) Inhibition of HIV reverse transcriptase (RT) was studied in a one milliliter reaction mixture containing 12.5 μmol Tris-HCl (pH 8.3), 3 μmol MgCl2, 10 μmol KCl, 2.5 μmol dithiothreitol, 0.04 μmol of each dNTP, 1 μCi ^3H-TTP (50 Ci/mmol), 10 μl of DMSO containing 0-320 μg/ml of 9-O-methyl oxime erythromycin A (EMO), and 0.01 μg HIV-1 reverse transcriptase. DNA template (0.01 μg) from calf thymus was used as the substrate in the reaction. After 60 minutes incubation at 37° C., samples from the reaction were pipetted on 3 MM filter paper discs (Whatman), which were washed 5 times in cold trichloroacetic acid (5%) containing sodium pyrophosphate (0.01 M). After drying, the discs were counted in a toluene scintillation solution using a Beckman scintillation spectrometer. Reactions with DNA-dependent DNA polymerase (DNA pol I, GibcoBRL) or DNA-dependent RNA polymerase from E. coli were carried out as described above, except that ^3H-UTP replaced ^3H-TTP where appropriate.
# [2] = molecular target: T2, HIV-1 reverse transcriptase (Human immunodeficiency virus type 1 group M subtype B, UniProt P04585); experiment: Inhibition of HIV reverse transcriptase, 3H-TTP incorporation on calf thymus DNA template; format: biochemical; conditions: for HIV RT Radioactivity: 60 minutes at 37° C.
# T2 construct: 0.01 μg HIV-1 reverse transcriptase
# Protocol: as §1
# [3] = molecular target: DNA-dependent RNA polymerase from E. coli (Escherichia coli, UniProt P0A8T7+P0A8V2); experiment: DNA-dependent RNA polymerase reaction, 3H-UTP incorporation; format: biochemical
# Sequence of DNA-dependent RNA polymerase from E. coli (P0A8V2 whole entry): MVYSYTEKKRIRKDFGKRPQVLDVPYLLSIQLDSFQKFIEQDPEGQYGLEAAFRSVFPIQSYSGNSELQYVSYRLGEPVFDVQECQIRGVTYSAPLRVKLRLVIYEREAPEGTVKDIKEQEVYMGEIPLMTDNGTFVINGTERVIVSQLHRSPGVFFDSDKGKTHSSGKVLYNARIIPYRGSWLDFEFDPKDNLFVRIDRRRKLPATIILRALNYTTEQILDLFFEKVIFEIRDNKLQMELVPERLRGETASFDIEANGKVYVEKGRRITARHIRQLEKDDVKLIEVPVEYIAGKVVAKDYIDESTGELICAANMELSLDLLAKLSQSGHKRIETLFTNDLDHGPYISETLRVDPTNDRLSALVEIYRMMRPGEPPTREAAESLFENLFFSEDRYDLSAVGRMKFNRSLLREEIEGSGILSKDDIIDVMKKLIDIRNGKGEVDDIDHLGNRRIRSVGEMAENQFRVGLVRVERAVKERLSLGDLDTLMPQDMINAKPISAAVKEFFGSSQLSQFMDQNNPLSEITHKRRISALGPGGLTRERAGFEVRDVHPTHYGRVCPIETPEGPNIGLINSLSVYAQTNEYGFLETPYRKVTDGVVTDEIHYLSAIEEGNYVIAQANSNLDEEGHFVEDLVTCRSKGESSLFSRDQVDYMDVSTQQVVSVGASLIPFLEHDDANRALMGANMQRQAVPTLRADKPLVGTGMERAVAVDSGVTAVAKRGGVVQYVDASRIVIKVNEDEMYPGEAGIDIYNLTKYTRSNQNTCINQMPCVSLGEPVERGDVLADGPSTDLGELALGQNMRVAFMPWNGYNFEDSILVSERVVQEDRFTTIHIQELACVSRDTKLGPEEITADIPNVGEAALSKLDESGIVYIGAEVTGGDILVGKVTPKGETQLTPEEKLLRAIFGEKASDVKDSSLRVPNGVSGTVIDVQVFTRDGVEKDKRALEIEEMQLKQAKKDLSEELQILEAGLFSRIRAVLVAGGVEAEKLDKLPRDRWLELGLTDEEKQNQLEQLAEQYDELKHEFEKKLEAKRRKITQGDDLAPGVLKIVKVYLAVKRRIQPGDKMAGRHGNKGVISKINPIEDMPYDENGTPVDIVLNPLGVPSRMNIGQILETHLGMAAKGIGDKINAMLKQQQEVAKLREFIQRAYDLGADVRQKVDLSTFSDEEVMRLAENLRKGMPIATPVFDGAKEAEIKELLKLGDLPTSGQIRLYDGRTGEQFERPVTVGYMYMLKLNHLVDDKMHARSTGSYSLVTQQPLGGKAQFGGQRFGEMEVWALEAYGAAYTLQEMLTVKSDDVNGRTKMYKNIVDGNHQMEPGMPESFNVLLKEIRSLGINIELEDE
# Sequence of DNA-dependent RNA polymerase from E. coli (P0A7Z4 whole entry, further chain): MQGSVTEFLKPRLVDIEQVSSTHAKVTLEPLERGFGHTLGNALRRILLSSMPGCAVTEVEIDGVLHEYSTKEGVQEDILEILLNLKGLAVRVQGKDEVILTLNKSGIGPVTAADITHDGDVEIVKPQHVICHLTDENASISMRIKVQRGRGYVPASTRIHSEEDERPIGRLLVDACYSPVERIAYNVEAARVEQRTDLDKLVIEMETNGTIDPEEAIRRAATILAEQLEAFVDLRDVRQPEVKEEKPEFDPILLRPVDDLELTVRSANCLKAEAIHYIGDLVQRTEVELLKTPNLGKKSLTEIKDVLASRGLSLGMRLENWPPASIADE
# Sequence of DNA-dependent RNA polymerase from E. coli (P0A800 whole entry, further chain): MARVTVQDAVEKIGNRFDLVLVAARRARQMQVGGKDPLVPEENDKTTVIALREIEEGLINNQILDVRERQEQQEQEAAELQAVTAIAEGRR
# Sequence of DNA-dependent RNA polymerase from E. coli (P0A8T7 whole entry): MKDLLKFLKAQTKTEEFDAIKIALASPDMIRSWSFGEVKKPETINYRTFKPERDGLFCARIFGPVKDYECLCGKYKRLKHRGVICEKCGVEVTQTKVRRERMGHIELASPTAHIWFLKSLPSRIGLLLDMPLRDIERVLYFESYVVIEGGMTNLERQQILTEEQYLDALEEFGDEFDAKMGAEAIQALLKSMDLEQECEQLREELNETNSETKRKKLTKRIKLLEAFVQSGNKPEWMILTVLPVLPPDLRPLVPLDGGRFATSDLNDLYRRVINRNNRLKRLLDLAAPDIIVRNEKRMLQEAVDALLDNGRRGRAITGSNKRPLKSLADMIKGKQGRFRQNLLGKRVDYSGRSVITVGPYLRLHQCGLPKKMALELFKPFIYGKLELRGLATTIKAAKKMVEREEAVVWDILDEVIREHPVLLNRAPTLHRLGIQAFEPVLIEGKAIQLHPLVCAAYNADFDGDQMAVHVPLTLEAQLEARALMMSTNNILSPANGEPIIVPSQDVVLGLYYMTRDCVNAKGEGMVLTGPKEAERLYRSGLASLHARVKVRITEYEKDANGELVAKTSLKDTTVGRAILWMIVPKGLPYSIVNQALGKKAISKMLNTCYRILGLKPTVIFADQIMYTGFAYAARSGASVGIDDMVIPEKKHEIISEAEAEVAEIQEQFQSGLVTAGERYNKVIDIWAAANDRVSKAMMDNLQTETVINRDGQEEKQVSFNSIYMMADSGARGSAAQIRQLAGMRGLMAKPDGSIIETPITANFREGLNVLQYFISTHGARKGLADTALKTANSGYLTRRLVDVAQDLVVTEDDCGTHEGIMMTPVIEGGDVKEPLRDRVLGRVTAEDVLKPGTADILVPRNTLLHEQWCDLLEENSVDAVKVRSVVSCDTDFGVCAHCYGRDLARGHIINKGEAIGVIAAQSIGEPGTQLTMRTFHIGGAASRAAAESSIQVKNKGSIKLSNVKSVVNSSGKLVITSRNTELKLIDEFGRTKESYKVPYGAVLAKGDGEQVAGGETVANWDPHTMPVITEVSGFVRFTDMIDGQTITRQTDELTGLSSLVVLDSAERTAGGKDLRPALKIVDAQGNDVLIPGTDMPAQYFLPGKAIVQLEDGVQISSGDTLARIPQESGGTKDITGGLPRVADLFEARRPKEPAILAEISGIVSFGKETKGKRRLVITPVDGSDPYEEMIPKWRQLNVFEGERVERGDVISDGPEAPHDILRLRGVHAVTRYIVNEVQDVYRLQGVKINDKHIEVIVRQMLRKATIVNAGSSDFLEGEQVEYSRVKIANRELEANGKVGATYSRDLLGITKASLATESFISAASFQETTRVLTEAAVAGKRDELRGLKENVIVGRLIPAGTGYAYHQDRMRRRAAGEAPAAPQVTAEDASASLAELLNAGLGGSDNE
# Protocol: as §1
# [4] = gastric acid; stated without a test; cited from earlier work
# T1 sequence (P00582 whole entry): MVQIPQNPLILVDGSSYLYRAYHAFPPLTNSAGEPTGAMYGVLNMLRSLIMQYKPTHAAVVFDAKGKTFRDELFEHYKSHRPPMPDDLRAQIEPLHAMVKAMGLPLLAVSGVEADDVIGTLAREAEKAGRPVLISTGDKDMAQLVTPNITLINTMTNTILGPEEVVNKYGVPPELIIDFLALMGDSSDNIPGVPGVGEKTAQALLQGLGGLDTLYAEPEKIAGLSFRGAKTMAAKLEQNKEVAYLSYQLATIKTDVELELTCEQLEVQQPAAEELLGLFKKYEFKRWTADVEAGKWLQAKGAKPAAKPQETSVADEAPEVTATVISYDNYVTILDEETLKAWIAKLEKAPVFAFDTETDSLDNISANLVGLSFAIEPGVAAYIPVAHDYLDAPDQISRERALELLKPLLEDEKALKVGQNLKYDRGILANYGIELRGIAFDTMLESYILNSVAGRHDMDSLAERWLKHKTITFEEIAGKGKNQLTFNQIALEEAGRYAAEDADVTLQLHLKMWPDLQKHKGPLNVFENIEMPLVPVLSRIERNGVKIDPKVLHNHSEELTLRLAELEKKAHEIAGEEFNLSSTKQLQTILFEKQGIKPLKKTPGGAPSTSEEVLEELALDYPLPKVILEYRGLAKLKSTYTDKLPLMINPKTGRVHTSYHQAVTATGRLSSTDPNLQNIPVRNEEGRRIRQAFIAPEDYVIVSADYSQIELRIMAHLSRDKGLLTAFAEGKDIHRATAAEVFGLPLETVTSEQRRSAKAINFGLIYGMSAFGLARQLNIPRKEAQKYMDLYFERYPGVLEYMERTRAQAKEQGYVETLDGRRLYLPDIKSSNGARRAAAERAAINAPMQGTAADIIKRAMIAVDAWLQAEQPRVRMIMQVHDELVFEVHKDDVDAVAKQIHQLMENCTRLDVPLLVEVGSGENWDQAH
structure (smiles),measurement,setting,value
"CC[C@H]1OC(=O)[C@H](C)[C@@H](O[C@H]2C[C@@](C)(OC)[C@@H](O)[C@H](C)O2)[C@H](C)[C@@H](O[C@@H]2O[C@H](C)C[C@H](N(C)C)[C@H]2O)[C@](C)(O)C[C@@H](C)/C(=N\OC)[C@H](C)[C@@H](O)[C@]1(C)O [EMO, 9-O-methyl oxime erythromycin A]",DNA-dependent DNA polymerase % Inhibition,[1]; [EMO] 80 μg/ml,−2%
same,DNA-dependent DNA polymerase Radioactivity,[1]; [EMO] 80 μg/ml,"12,800 cpm"
same,DNA-dependent DNA polymerase % Inhibition,[1]; [EMO] 160 μg/ml,1%
same,DNA-dependent DNA polymerase Radioactivity,[1]; [EMO] 160 μg/ml,"12,400 cpm"
same,DNA-dependent DNA polymerase % Inhibition,[1]; [EMO] 320 μg/ml,0%
same,DNA-dependent DNA polymerase Radioactivity,[1]; [EMO] 320 μg/ml,"12,600 cpm"
same,HIV RT % Inhibition,[2]; [EMO] 20 μg/ml,0.8%
same,HIV RT Radioactivity,[2]; [EMO] 20 μg/ml,8490 cpm
same,HIV RT % Inhibition,[2]; [EMO] 40 μg/ml,−0.5%
same,HIV RT Radioactivity,[2]; [EMO] 40 μg/ml,8600 cpm
same,HIV RT % Inhibition,[2]; [EMO] 80 μg/ml,20%
same,HIV RT Radioactivity,[2]; [EMO] 80 μg/ml,6850 cpm
same,HIV RT % Inhibition,[2]; [EMO] 160 μg/ml,81%
same,HIV RT Radioactivity,[2]; [EMO] 160 μg/ml,1625 cpm
same,HIV RT % Inhibition,[2]; [EMO] 320 μg/ml,85%
same,HIV RT Radioactivity,[2]; [EMO] 320 μg/ml,1287 cpm
same,DNA-dependent RNA polymerase % Inhibition,[3]; [EMO] 80 μg/ml,−0.2%
same,DNA-dependent RNA polymerase Radioactivity,[3]; [EMO] 80 μg/ml,"33,000 cpm"
same,DNA-dependent RNA polymerase % Inhibition,[3]; [EMO] 160 μg/ml,−1%
same,DNA-dependent RNA polymerase Radioactivity,[3]; [EMO] 160 μg/ml,"32,800 cpm"
same,DNA-dependent RNA polymerase % Inhibition,[3]; [EMO] 320 μg/ml,0.5%
same,DNA-dependent RNA polymerase Radioactivity,[3]; [EMO] 320 μg/ml,"32,400 cpm"
"CC[C@H]1OC(=O)[C@H](C)[C@@H](O[C@H]2C[C@@](C)(OC)[C@@H](O)[C@H](C)O2)[C@H](C)[C@@H](O[C@@H]2O[C@H](C)C[C@H](N(C)C)[C@H]2O)[C@](C)(O)C[C@@H](C)C(=O)[C@H](C)[C@@H](O)[C@]1(C)O [Erythromycin A, erythromycin A]",acid stability,[4],acid labile
